According to US20230085307A1, “PYRIDAZINONE COMPOUND AND HERBICIDE” (NISSAN CHEMICAL CORPORATION, priority 2019, published 2023):

These molecules were tested on chickweed (assay: Test Example 5: herbicidal effect by foliage application, plastic box (Table 20, symbol P)). Details: foliage application, 320 g/ha, evaluated three weeks after application.
Assay type: in vivo, common chickweed (Stellaria media)
How it was run: (§1)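 Sow seeds spot-wise in sterilized diluvial soil; cover with ~1.5 cm soil. Grow 14 days in greenhouse, 25° C. to 30° C. Spray foliage with emulsion diluted to predetermined amount. Rate effect after 3 weeks.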

SMILES	herbicidal effect on P: chickweed (criteria 0-5)
Cc1nn(C)c(=O)c(-c2c(-c3ccccc3F)sc3ccc(F)cc23)c1O [2-199]	5 (Herbicidal rate of 90% or more (almost completely withered))
Cc1nn(C)c(=O)c(-c2c(-c3ccc(Br)cc3)sc3ccc(F)cc23)c1O [2-205]	5 (Herbicidal rate of 90% or more (almost completely withered))

What follows are molecules tested on barnyard grass (assay: Test Example 4: herbicidal effect by soil treatment (Table 19, symbol H)). Details: amount of applied herbicide 320 g/ha.
Assay type: in vivo, barnyard grass (Echinochloa crus-galli)
How it was run: (§2)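 Soil-surface application: an emulsion agent diluted with water to the predetermined dose is sprayed uniformly over seeds lying under roughly 1.5 cm of sterilized diluvial soil. Boxes stay in a greenhouse at 25° C. to 30° C. Three weeks later, each species is graded on previously defined criteria.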

SMILES	H: barnyard grass, herbicidal effect rating
Cc1nn(C)c(=O)c(-c2c(-c3ccccc3F)sc3ccc(F)cc23)c1O [2-199]	4 (Herbicidal rate of 70% or more and less than 90%)
Cc1nn(C)c(=O)c(-c2c(-c3ccc(Br)cc3)sc3ccc(F)cc23)c1O [2-205]	4 (Herbicidal rate of 70% or more and less than 90%)

Each molecule was assayed on southern crabgrass (assay: Test Example 5: herbicidal effect by foliage application, plastic box (Table 20, symbol F)). Details: foliage application, 320 g/ha, evaluated three weeks after application.
Assay type: in vivo, southern crabgrass (Digitaria ciliaris)
How it was run: as §1

SMILES	herbicidal effect on F: southern crabgrass (criteria 0-5)
Cc1nn(C)c(=O)c(-c2c(-c3ccccc3F)sc3ccc(F)cc23)c1O [2-199]	4 (Herbicidal rate of 70% or more and less than 90%)
Cc1nn(C)c(=O)c(-c2c(-c3ccc(Br)cc3)sc3ccc(F)cc23)c1O [2-205]	5 (Herbicidal rate of 90% or more (almost completely withered))

These molecules were tested on Japanese bulrush (assay: Test Example 1: herbicidal activity, application before weed generation under submerged conditions (Table 16, symbol B)). Details: 320 g/ha applied herbicide.
Assay type: in vivo, Japanese bulrush (Schoenoplectus juncoides)
How it was run: (§3)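 Submerged Wagner pots (alluvial soil, 4 cm water) sown with weed seeds and planted with 2.5-leaf rice seedlings; emulsifiable concentrate diluted in water applied to water surface on sowing day. Held in greenhouse at 25-30 °C; injury scored 0-5 by herbicidal rate after three weeks.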

SMILES	Herbicidal effect on B: Japanese bulrush (grade 0-5)
Cc1nn(C)c(=O)c(-c2c(-c3ccccc3F)sc3ccc(F)cc23)c1O [2-199]	3 (Herbicidal rate of 40% or more and less than 70%)
Cc1nn(C)c(=O)c(-c2c(-c3ccc(Br)cc3)sc3ccc(F)cc23)c1O [2-205]	3 (Herbicidal rate of 40% or more and less than 70%)

What follows are molecules tested on windgrass (assay: Test Example 5: herbicidal effect by foliage application, plastic box (Table 20, symbol L)). Details: foliage application, 320 g/ha, evaluated three weeks after application.
Assay type: in vivo, windgrass (Apera spica-venti)
How it was run: as §1

SMILES	herbicidal effect on L: windgrass (criteria 0-5)
Cc1nn(C)c(=O)c(-c2c(-c3ccccc3F)sc3ccc(F)cc23)c1O [2-199]	0 (Herbicidal rate of 5% or less (almost no effect))
Cc1nn(C)c(=O)c(-c2c(-c3ccc(Br)cc3)sc3ccc(F)cc23)c1O [2-205]	5 (Herbicidal rate of 90% or more (almost completely withered))

What follows are molecules tested on Japanese bulrush (assay: Test Example 2: herbicidal activity, application during weed generation under submerged conditions (Table 17, symbol B)). Details: AAH 320 g/ha; application during weed generation, submerged conditions.
Assay type: in vivo, Japanese bulrush (Schoenoplectus juncoides)
How it was run: (§4)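 3-wk visual-criteria score after one water-surface dose. Emulsion formulation, water-diluted to set rate; applied at 1–2 leaf stage; alluvial soil, 4 cm standing water; seeds co-sown; greenhouse 25–30° C.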

SMILES	herbicidal effect rating, B: Japanese bulrush
Cc1nn(C)c(=O)c(-c2c(-c3ccccc3F)sc3ccc(F)cc23)c1O [2-199]	2 (Herbicidal rate of 20% or more and less than 40%)
Cc1nn(C)c(=O)c(-c2c(-c3ccc(Br)cc3)sc3ccc(F)cc23)c1O [2-205]	3 (Herbicidal rate of 40% or more and less than 70%)

What follows are molecules tested on redroot pigweed (assay: Test Example 4: herbicidal effect by soil treatment (Table 19, symbol N)). Details: amount of applied herbicide 320 g/ha.
Assay type: in vivo, redroot pigweed (Amaranthus retroflexus)
How it was run: as §2

SMILES	N: redroot pigweed, herbicidal effect rating
Cc1nn(C)c(=O)c(-c2c(-c3ccccc3F)sc3ccc(F)cc23)c1O [2-199]	4 (Herbicidal rate of 70% or more and less than 90%)
Cc1nn(C)c(=O)c(-c2c(-c3ccc(Br)cc3)sc3ccc(F)cc23)c1O [2-205]	5 (Herbicidal rate of 90% or more (almost completely withered))

What follows are molecules tested on wild oat (assay: Test Example 5: herbicidal effect by foliage application, plastic box (Table 20, symbol I)). Details: foliage application, 320 g/ha, evaluated three weeks after application.
Assay type: in vivo, wild oat (Avena fatua)
How it was run: as §1

SMILES	herbicidal effect on I: wild oat (criteria 0-5)
Cc1nn(C)c(=O)c(-c2c(-c3ccccc3F)sc3ccc(F)cc23)c1O [2-199]	1 (Herbicidal rate of 5% or more and less than 20%)
Cc1nn(C)c(=O)c(-c2c(-c3ccc(Br)cc3)sc3ccc(F)cc23)c1O [2-205]	4 (Herbicidal rate of 70% or more and less than 90%)

These molecules were tested on oval-leafed pondweed (assay: Test Example 2: herbicidal activity, application during weed generation under submerged conditions (Table 17, symbol C)). Details: AAH 320 g/ha; application during weed generation, submerged conditions.
Assay type: in vivo, oval-leafed pondweed (Monochoria vaginalis)
How it was run: as §4

SMILES	herbicidal effect rating, C: oval-leafed pondweed
Cc1nn(C)c(=O)c(-c2c(-c3ccccc3F)sc3ccc(F)cc23)c1O [2-199]	0 (Herbicidal rate of 5% or less (almost no effect))
Cc1nn(C)c(=O)c(-c2c(-c3ccc(Br)cc3)sc3ccc(F)cc23)c1O [2-205]	2 (Herbicidal rate of 20% or more and less than 40%)

The molecules below were run on green foxtail (assay: Test Example 4: herbicidal effect by soil treatment (Table 19, symbol G)). Details: amount of applied herbicide 320 g/ha.
Assay type: in vivo, green foxtail (Setaria viridis)
How it was run: as §2

SMILES	G: green foxtail, herbicidal effect rating
Cc1nn(C)c(=O)c(-c2c(-c3ccccc3F)sc3ccc(F)cc23)c1O [2-199]	4 (Herbicidal rate of 70% or more and less than 90%)
Cc1nn(C)c(=O)c(-c2c(-c3ccc(Br)cc3)sc3ccc(F)cc23)c1O [2-205]	5 (Herbicidal rate of 90% or more (almost completely withered))

What follows are molecules tested on barnyard grass (assay: Test Example 5: herbicidal effect by foliage application, plastic box (Table 20, symbol H)). Details: foliage application, 320 g/ha, evaluated three weeks after application.
Assay type: in vivo, barnyard grass (Echinochloa crus-galli)
How it was run: as §1

SMILES	herbicidal effect on H: barnyard grass (criteria 0-5)
Cc1nn(C)c(=O)c(-c2c(-c3ccccc3F)sc3ccc(F)cc23)c1O [2-199]	3 (Herbicidal rate of 40% or more and less than 70%)
Cc1nn(C)c(=O)c(-c2c(-c3ccc(Br)cc3)sc3ccc(F)cc23)c1O [2-205]	5 (Herbicidal rate of 90% or more (almost completely withered))

Each molecule was assayed on green foxtail (assay: Test Example 5: herbicidal effect by foliage application, plastic box (Table 20, symbol G)). Details: foliage application, 320 g/ha, evaluated three weeks after application.
Assay type: in vivo, green foxtail (Setaria viridis)
How it was run: as §1

SMILES	herbicidal effect on G: green foxtail (criteria 0-5)
Cc1nn(C)c(=O)c(-c2c(-c3ccccc3F)sc3ccc(F)cc23)c1O [2-199]	5 (Herbicidal rate of 90% or more (almost completely withered))
Cc1nn(C)c(=O)c(-c2c(-c3ccc(Br)cc3)sc3ccc(F)cc23)c1O [2-205]	5 (Herbicidal rate of 90% or more (almost completely withered))

These molecules were tested on chickweed (assay: Test Example 4: herbicidal effect by soil treatment (Table 19, symbol P)). Details: amount of applied herbicide 320 g/ha.
Assay type: in vivo, common chickweed (Stellaria media)
How it was run: as §2

SMILES	P: chickweed, herbicidal effect rating
Cc1nn(C)c(=O)c(-c2c(-c3ccccc3F)sc3ccc(F)cc23)c1O [2-199]	2 (Herbicidal rate of 20% or more and less than 40%)
Cc1nn(C)c(=O)c(-c2c(-c3ccc(Br)cc3)sc3ccc(F)cc23)c1O [2-205]	3 (Herbicidal rate of 40% or more and less than 70%)

Each molecule was assayed on oval-leafed pondweed (assay: Test Example 1: herbicidal activity, application before weed generation under submerged conditions (Table 16, symbol C)). Details: 320 g/ha applied herbicide.
Assay type: in vivo, oval-leafed pondweed (Monochoria vaginalis)
How it was run: as §3

SMILES	Herbicidal effect on C: oval-leafed pondweed (grade 0-5)
Cc1nn(C)c(=O)c(-c2c(-c3ccccc3F)sc3ccc(F)cc23)c1O [2-199]	2 (Herbicidal rate of 20% or more and less than 40%)
Cc1nn(C)c(=O)c(-c2c(-c3ccc(Br)cc3)sc3ccc(F)cc23)c1O [2-205]	1 (Herbicidal rate of 5% or more and less than 20%)

Each molecule was assayed on wild oat (assay: Test Example 4: herbicidal effect by soil treatment (Table 19, symbol I)). Details: amount of applied herbicide 320 g/ha.
Assay type: in vivo, wild oat (Avena fatua)
How it was run: as §2

SMILES	I: wild oat, herbicidal effect rating
Cc1nn(C)c(=O)c(-c2c(-c3ccccc3F)sc3ccc(F)cc23)c1O [2-199]	0 (Herbicidal rate of 5% or less (almost no effect))
Cc1nn(C)c(=O)c(-c2c(-c3ccc(Br)cc3)sc3ccc(F)cc23)c1O [2-205]	1 (Herbicidal rate of 5% or more and less than 20%)

What follows are molecules tested on persian speedwell (assay: Test Example 5: herbicidal effect by foliage application, plastic box (Table 20, symbol R)). Details: foliage application, 320 g/ha, evaluated three weeks after application.
Assay type: in vivo, Persian speedwell (Veronica persica)
How it was run: as §1

SMILES	herbicidal effect on R: persian speedwell (criteria 0-5)
Cc1nn(C)c(=O)c(-c2c(-c3ccccc3F)sc3ccc(F)cc23)c1O [2-199]	5 (Herbicidal rate of 90% or more (almost completely withered))
Cc1nn(C)c(=O)c(-c2c(-c3ccc(Br)cc3)sc3ccc(F)cc23)c1O [2-205]	5 (Herbicidal rate of 90% or more (almost completely withered))
